Data as given in patent US10266537B2, “3-acetylenyl-pyrazole-pyrimidine derivative, and preparation method therefor and uses thereof” (Si Chuan University, priority 2015, dated 2019).

Experiments:
HBL-1 = test: cells; conditions: Homo sapiens, HBL1, 72 h, read-out: Proliferation inhibitory activity IC50
Met(Y1248C)(h) = Met(Y1248C)(h) (Homo sapiens (Human), UniProt P08581, Y1248C); test: Kinase inhibition assay (KinaseProfiler, 33P-ATP); type: biochemical; conditions: read-out: The percentage of the remaining active protein
Sequence of Met(Y1248C)(h) (P08581 other isoform, or with tags, fused parts or gaps Y1248C): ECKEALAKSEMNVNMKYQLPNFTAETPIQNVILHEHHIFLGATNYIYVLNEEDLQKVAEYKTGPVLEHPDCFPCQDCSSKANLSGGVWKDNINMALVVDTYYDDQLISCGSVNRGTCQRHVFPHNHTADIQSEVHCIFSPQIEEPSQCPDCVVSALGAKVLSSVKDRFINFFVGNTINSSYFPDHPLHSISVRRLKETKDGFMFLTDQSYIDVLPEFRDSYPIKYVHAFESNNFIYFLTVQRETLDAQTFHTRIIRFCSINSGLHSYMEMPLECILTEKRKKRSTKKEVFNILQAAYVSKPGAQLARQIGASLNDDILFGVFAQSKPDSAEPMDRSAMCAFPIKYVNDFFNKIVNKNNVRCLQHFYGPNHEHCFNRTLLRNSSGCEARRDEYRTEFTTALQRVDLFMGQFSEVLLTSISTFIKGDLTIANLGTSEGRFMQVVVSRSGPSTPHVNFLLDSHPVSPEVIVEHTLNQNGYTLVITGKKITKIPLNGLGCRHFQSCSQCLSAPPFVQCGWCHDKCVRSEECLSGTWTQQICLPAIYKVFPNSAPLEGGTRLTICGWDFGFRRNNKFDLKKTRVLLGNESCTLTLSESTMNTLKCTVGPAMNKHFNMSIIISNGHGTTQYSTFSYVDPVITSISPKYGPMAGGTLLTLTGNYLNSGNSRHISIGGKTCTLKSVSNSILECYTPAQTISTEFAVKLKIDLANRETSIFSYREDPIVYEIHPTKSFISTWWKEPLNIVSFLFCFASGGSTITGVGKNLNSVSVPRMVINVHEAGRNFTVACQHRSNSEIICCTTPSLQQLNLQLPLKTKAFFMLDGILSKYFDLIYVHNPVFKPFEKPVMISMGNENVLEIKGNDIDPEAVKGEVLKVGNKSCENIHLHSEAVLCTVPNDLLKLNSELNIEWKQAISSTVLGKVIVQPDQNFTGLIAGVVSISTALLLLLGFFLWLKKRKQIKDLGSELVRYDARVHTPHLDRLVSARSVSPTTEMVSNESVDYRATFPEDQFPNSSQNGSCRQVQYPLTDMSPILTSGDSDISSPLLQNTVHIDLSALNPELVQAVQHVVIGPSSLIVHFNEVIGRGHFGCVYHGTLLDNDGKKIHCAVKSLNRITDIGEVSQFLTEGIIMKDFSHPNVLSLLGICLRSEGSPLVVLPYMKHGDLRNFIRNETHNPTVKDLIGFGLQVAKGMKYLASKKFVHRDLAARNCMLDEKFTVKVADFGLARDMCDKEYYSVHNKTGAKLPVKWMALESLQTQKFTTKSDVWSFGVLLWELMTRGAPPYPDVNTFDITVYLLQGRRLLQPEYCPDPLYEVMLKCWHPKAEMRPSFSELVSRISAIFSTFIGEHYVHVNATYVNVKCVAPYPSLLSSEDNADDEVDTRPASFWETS

PKCβII(h) = PKCβII(h) (Homo sapiens (Human), UniProt P05771); test: Kinase inhibition assay (KinaseProfiler, 33P-ATP); type: biochemical; conditions: read-out: The percentage of the remaining active protein
Fes(h) = Fes(h) (Homo sapiens (Human), UniProt P07332); test: Kinase inhibition assay (KinaseProfiler, 33P-ATP); type: biochemical; conditions: read-out: The percentage of the remaining active protein
EGFR(T790M, L858R) = EGFR(T790M, L858R) (Homo sapiens (Human), UniProt P00533, L858R/T790M); test: Kinase inhibition assay (KinaseProfiler, 33P-ATP); type: biochemical; conditions: EGFR(T790M, L858R)(h), read-out: The percentage of the remaining active protein
JNK3(h) = JNK3(h) (Homo sapiens (Human), UniProt P53779); test: Kinase inhibition assay (KinaseProfiler, 33P-ATP); type: biochemical; conditions: read-out: The percentage of the remaining active protein
PKG1α(h) = PKG1α(h) (Homo sapiens (Human), UniProt Q13976); test: Kinase inhibition assay (KinaseProfiler, 33P-ATP); type: biochemical; conditions: read-out: The percentage of the remaining active protein
ASK1(h) = ASK1(h) (Homo sapiens (Human), UniProt Q99683); test: Kinase inhibition assay (KinaseProfiler, 33P-ATP); type: biochemical; conditions: read-out: The percentage of the remaining active protein
ULK2(h) = ULK2(h) (Homo sapiens (Human), UniProt Q8IYT8); test: Kinase inhibition assay (KinaseProfiler, 33P-ATP); type: biochemical; conditions: read-out: The percentage of the remaining active protein
PKCζ(h) = PKCζ(h) (Homo sapiens (Human), UniProt Q05513); test: Kinase inhibition assay (KinaseProfiler, 33P-ATP); type: biochemical; conditions: read-out: The percentage of the remaining active protein
CaMKI(h) = CaMKI(h) (Homo sapiens (Human), UniProt Q14012); test: Kinase inhibition assay (KinaseProfiler, 33P-ATP); type: biochemical; conditions: read-out: The percentage of the remaining active protein
Tie2(Y897S)(h) = Tie2(Y897S)(h) (Homo sapiens (Human), UniProt Q02763, Y897S); test: Kinase inhibition assay (KinaseProfiler, 33P-ATP); type: biochemical; conditions: read-out: The percentage of the remaining active protein
CDK2/cyclinE(h) = CDK2/cyclinE(h) (Homo sapiens (Human), UniProt P24941); test: Kinase inhibition assay (KinaseProfiler, 33P-ATP); type: biochemical; conditions: read-out: The percentage of the remaining active protein
FGFR3 = FGFR3 (Homo sapiens (Human), UniProt P22607); test: Kinase inhibition assay (KinaseProfiler, 33P-ATP); type: biochemical; conditions: FGFR3(h), read-out: The percentage of the remaining active protein
Met(D1246H)(h) = Met(D1246H)(h) (Homo sapiens (Human), UniProt P08581, D1246H); test: Kinase inhibition assay (KinaseProfiler, 33P-ATP); type: biochemical; conditions: read-out: The percentage of the remaining active protein
Sequence of Met(D1246H)(h) (P08581 other isoform, or with tags, fused parts or gaps D1246H): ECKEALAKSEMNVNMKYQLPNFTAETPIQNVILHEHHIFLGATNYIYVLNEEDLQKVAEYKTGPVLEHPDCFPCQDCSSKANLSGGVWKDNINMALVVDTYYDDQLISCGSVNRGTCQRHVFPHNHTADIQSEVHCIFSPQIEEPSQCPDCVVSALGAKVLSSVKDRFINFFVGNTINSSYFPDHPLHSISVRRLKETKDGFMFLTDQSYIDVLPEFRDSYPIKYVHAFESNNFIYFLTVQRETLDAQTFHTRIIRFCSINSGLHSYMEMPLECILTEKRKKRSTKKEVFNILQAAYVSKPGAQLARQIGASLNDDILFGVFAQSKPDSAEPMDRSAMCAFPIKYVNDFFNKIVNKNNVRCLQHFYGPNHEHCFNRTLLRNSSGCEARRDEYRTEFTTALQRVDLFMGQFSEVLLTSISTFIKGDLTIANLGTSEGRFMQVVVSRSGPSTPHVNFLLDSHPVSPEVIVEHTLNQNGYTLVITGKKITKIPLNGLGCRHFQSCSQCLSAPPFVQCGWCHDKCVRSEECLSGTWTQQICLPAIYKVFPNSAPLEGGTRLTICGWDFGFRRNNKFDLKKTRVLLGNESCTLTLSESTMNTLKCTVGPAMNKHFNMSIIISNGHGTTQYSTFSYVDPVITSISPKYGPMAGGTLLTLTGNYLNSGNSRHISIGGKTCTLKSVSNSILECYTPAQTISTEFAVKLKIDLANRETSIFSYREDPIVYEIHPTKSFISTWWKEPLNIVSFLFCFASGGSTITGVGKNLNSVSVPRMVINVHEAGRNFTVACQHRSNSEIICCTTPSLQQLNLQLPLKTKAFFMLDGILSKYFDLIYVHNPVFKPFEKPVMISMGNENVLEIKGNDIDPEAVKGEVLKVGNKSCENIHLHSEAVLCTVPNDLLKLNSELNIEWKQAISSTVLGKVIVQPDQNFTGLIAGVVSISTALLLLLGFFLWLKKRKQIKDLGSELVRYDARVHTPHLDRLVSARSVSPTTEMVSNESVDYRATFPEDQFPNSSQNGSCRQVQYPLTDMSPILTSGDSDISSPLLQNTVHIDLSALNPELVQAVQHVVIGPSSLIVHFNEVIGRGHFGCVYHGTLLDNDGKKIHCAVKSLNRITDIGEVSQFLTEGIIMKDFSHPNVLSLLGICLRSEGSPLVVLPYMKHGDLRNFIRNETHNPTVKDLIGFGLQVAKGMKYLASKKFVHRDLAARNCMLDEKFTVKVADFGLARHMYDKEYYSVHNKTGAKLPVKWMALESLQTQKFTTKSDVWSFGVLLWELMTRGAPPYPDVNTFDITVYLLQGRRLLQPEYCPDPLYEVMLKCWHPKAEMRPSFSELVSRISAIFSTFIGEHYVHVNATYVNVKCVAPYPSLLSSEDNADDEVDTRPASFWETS

Met(Y1248D)(h) = Met(Y1248D)(h) (Homo sapiens (Human), UniProt P08581, Y1248D); test: Kinase inhibition assay (KinaseProfiler, 33P-ATP); type: biochemical; conditions: read-out: The percentage of the remaining active protein
CHK2(R145W)(h) = CHK2(R145W)(h) (Homo sapiens (Human), UniProt O96017, R145W); test: Kinase inhibition assay (KinaseProfiler, 33P-ATP); type: biochemical; conditions: read-out: The percentage of the remaining active protein
Rsk3(h) = Rsk3(h) (Homo sapiens (Human), UniProt Q15349); test: Kinase inhibition assay (KinaseProfiler, 33P-ATP); type: biochemical; conditions: read-out: The percentage of the remaining active protein
[1] = target: PI3 Kinase (p110b/p85b)(m) (Mus musculus (Mouse), UniProt Q8BTI9); test: Kinase inhibition assay (KinaseProfiler, 33P-ATP); type: biochemical; conditions: read-out: The percentage of the remaining active protein
GRK1(h) = GRK1(h) (Homo sapiens (Human), UniProt Q15835); test: Kinase inhibition assay (KinaseProfiler, 33P-ATP); type: biochemical; conditions: read-out: The percentage of the remaining active protein
Sequence of GRK1(h) (Q15835 whole entry): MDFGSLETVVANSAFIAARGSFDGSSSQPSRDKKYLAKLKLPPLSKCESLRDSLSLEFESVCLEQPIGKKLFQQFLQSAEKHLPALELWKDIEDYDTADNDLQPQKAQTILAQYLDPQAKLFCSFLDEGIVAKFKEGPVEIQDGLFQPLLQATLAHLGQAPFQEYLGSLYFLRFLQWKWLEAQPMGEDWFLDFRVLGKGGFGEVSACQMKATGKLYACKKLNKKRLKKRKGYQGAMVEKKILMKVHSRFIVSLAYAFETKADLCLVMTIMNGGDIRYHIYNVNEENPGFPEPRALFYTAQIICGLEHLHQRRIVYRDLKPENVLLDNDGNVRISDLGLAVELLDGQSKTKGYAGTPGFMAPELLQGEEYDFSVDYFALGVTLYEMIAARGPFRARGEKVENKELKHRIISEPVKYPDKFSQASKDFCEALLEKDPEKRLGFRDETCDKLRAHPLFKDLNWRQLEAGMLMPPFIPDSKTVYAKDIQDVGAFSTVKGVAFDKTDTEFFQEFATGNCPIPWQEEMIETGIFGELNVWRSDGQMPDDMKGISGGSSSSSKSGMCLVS

Abl(T315I) = Abl(T315I) (Homo sapiens (Human), UniProt P00519, T315I); test: Kinase inhibition assay (KinaseProfiler, 33P-ATP); type: biochemical; conditions: Abl(T315I)(h); 10 μM; read-out: The percentage of the remaining active protein
PKCβI(h) = PKCβI(h) (Homo sapiens (Human), UniProt P05771); test: Kinase inhibition assay (KinaseProfiler, 33P-ATP); type: biochemical; conditions: read-out: The percentage of the remaining active protein
PASK(h) = PASK(h) (Homo sapiens (Human), UniProt Q96RG2); test: Kinase inhibition assay (KinaseProfiler, 33P-ATP); type: biochemical; conditions: read-out: The percentage of the remaining active protein
SAPK2a = SAPK2a (Homo sapiens (Human), UniProt Q16539); test: Kinase inhibition assay (KinaseProfiler, 33P-ATP); type: biochemical; conditions: SAPK2a(h), read-out: The percentage of the remaining active protein
Sequence of SAPK2a (Q16539 whole entry): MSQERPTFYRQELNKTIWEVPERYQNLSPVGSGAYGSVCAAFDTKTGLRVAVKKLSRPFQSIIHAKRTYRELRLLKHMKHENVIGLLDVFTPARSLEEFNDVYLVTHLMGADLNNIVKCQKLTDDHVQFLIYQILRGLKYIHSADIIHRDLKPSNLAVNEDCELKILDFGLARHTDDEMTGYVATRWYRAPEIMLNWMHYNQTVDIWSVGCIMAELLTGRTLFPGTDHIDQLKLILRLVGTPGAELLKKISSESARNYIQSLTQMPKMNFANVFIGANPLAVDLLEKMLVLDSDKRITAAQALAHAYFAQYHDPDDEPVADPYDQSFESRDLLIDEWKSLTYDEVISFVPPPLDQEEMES

CK1δ(h) = CK1δ(h) (Homo sapiens (Human), UniProt P48730); test: Kinase inhibition assay (KinaseProfiler, 33P-ATP); type: biochemical; conditions: read-out: The percentage of the remaining active protein
CaMKIIβ(h) = CaMKIIβ(h) (Homo sapiens (Human), UniProt Q13554); test: Kinase inhibition assay (KinaseProfiler, 33P-ATP); type: biochemical; conditions: read-out: The percentage of the remaining active protein
[2] = target: PI3 Kinase (p110d/p85a)(h) (Homo sapiens (Human), UniProt O00329); test: Kinase inhibition assay (KinaseProfiler, 33P-ATP); type: biochemical; conditions: read-out: The percentage of the remaining active protein
Flt4 = Flt4 (Homo sapiens (Human), UniProt P35916); test: Kinase inhibition assay (KinaseProfiler, 33P-ATP); type: biochemical; conditions: Flt4(h), read-out: The percentage of the remaining active protein
SIK(h) = SIK(h) (Homo sapiens (Human), UniProt P57059); test: Kinase inhibition assay (KinaseProfiler, 33P-ATP); type: biochemical; conditions: read-out: The percentage of the remaining active protein
STK25(h) = STK25(h) (Homo sapiens (Human), UniProt O00506); test: Kinase inhibition assay (KinaseProfiler, 33P-ATP); type: biochemical; conditions: read-out: The percentage of the remaining active protein
Flt1 = Flt1 (Homo sapiens (Human), UniProt P17948); test: Kinase inhibition assay (KinaseProfiler, 33P-ATP); type: biochemical
Sequence of Flt1 (P17948 27-1338): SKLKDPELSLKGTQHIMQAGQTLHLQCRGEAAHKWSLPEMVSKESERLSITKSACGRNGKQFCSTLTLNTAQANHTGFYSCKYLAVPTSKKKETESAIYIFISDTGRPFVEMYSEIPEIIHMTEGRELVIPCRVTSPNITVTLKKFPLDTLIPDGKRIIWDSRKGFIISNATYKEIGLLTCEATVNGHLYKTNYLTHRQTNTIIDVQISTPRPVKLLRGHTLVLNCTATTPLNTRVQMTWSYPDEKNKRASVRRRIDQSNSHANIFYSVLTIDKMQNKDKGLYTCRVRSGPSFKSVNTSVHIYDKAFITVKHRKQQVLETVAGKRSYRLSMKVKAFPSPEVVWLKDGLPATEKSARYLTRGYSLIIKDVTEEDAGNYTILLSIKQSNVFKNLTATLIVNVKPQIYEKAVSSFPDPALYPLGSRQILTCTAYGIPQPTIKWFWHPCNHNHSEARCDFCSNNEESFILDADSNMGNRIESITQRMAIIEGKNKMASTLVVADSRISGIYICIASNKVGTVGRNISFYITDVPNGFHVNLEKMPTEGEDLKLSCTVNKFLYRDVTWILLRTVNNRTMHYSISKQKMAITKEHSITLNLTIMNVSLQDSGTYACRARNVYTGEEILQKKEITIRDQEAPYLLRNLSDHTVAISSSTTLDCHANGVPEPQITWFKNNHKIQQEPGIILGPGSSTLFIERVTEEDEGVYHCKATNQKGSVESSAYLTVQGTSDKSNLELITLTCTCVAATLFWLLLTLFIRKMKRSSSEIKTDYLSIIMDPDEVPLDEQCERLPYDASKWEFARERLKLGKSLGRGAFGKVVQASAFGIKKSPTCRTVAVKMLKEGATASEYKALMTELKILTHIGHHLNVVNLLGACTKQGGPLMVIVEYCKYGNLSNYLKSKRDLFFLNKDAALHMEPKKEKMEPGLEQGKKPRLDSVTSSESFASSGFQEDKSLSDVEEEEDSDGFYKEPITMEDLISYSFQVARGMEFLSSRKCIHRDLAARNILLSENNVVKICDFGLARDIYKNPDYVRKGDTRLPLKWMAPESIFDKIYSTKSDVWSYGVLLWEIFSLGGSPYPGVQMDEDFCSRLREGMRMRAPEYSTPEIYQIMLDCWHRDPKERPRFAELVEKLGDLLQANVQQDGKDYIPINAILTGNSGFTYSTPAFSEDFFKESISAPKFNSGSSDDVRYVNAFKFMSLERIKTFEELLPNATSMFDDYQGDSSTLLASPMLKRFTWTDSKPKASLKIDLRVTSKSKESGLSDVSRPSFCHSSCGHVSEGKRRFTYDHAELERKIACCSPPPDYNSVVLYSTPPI

CK1γ3(h) = CK1γ3(h) (Homo sapiens (Human), UniProt Q9Y6M4); test: Kinase inhibition assay (KinaseProfiler, 33P-ATP); type: biochemical; conditions: read-out: The percentage of the remaining active protein
DRAK1(h) = DRAK1(h) (Homo sapiens (Human), UniProt Q9UEE5); test: Kinase inhibition assay (KinaseProfiler, 33P-ATP); type: biochemical; conditions: read-out: The percentage of the remaining active protein
Pyk2 = Pyk2 (Homo sapiens (Human), UniProt Q14289); test: Kinase inhibition assay (KinaseProfiler, 33P-ATP); type: biochemical; conditions: Pyk2(h), read-out: The percentage of the remaining active protein

Structure (SMILES): CCn1nc(C#Cc2cc(C(=O)Nc3ccc(CN4CCN(C)CC4)c(C(F)(F)F)c3)ccc2C)c2c(N)ncnc21 [Compound 3]
- IC50 (HBL-1): ~10 µM

Structure (SMILES): Cc1ccc(NC(=O)c2ccc(C)c(C(F)(F)F)c2)cc1C#Cc1nn([C@H]2CC[C@H](O)CC2)c2ncnc(N)c12 [Compound 93]
- remaining activity at 10 µM (Met(Y1248C)(h)): 139%
- remaining activity at 10 µM (PKCβII(h)): 99%
- remaining activity at 10 µM (Fes(h)): 34%
- remaining activity at 10 µM (EGFR(T790M, L858R)): 0%
- remaining activity at 10 µM (JNK3(h)): 40%
- remaining activity at 10 µM (PKG1α(h)): 118%
- remaining activity at 10 µM (ASK1(h)): 127%
- remaining activity at 10 µM (ULK2(h)): 100%
- remaining activity at 10 µM (PKCζ(h)): 99%
- remaining activity at 10 µM (CaMKI(h)): 62%
- remaining activity at 10 µM (Tie2(Y897S)(h)): 0%
- remaining activity at 10 µM (CDK2/cyclinE(h)): 102%
- remaining activity at 10 µM (FGFR3): 3%
- remaining activity at 10 µM (Met(D1246H)(h)): 124%
- remaining activity at 10 µM (Met(Y1248D)(h)): 105%
- remaining activity at 10 µM (CHK2(R145W)(h)): 102%
- remaining activity at 10 µM (Rsk3(h)): 38%
- remaining activity at 10 µM [1]: 93%
- remaining activity at 10 µM (GRK1(h)): 94%
- remaining activity at 10 µM (Abl(T315I)): 1%
- remaining activity at 10 µM (PKCβI(h)): 100%
- remaining activity at 10 µM (PASK(h)): 113%
- remaining activity at 10 µM (SAPK2a): 3%
- remaining activity at 10 µM (CK1δ(h)): 88%
- remaining activity at 10 µM (CaMKIIβ(h)): 85%
- remaining activity at 10 µM [2]: 74%
- remaining activity at 10 µM (Flt4): 1%
- remaining activity at 10 µM (SIK(h)): 7%
- remaining activity at 10 µM (STK25(h)): 66%
- remaining activity at 10 µM (Flt1; Flt1(h), 10 μM, read-out: The percentage of the remaining active protein): 3%
- IC50 (Flt1; Flt1, ATP at Km): 0.015 µM
- remaining activity at 10 µM (CK1γ3(h)): 103%
- remaining activity at 10 µM (DRAK1(h)): 140%
- remaining activity at 10 µM (Pyk2): 5%
